Experimental data from publication PMC10836395, “Investigation of how gate residues in the main channel affect the catalytic activity of Scytalidium thermophilum catalase” (Acta Crystallographica. Section D, Structural Biology, 2024).
Read-outs that look alike come from different tables or passages of the source. Marks after values point to notes of the source that are not given here.

What was measured:
CATPO E484D variant [1] = biological target: T1, CATPO E484D variant (Scytalidium thermophilum (Humicola insolens), UniProt M4GGR5, E503D); experiment: biochemical
CATPO T188D variant [2] = biological target: T2, CATPO T188D variant (Scytalidium thermophilum (Humicola insolens), UniProt M4GGR5, T207D); assay type: biochemical; details: for K m: pH 7.0 (ABTS pH 5.0), 60°C
CATPO [3] = biological target: T3, CATPO (Scytalidium thermophilum (Humicola insolens), UniProt M4GGR5); experiment: Substrate-specificity analysis of the phenol oxidase activity; assay type: biochemical
CATPO [4] = biological target: T3, CATPO; experiment: Inhibition of catechol oxidation; assay type: biochemical
CATPO E484I variant [5] = biological target: T4, CATPO E484I variant (Scytalidium thermophilum (Humicola insolens), UniProt M4GGR5, E503I); experiment: biochemical
CATPO T188I variant [6] = biological target: T5, CATPO T188I variant (Scytalidium thermophilum (Humicola insolens), UniProt M4GGR5, T207I); experiment: biochemical
CATPO E484A variant [7] = biological target: T6, CATPO E484A variant (Scytalidium thermophilum (Humicola insolens), UniProt M4GGR5, E503A); experiment: biochemical
CATPO T188I variant [8] = biological target: T5, CATPO T188I variant; assay type: biochemical; details: for K m: pH 7.0 (ABTS pH 5.0), 60°C
CATPO E484A variant [9] = biological target: T6, CATPO E484A variant; experiment: Substrate-specificity analysis of the phenol oxidase activity; assay type: biochemical; details: for K m: pH 7.0 (ABTS pH 5.0), 60°C
CATPO T188F variant [10] = biological target: T7, CATPO T188F variant (Scytalidium thermophilum (Humicola insolens), UniProt M4GGR5, T207F); assay type: biochemical; details: for K m: pH 7.0 (ABTS pH 5.0), 60°C
CATPO T188F variant [11] = biological target: T7, CATPO T188F variant; experiment: biochemical
CATPO E484D variant [12] = biological target: T1, CATPO E484D variant; assay type: biochemical; details: for K m: pH 7.0 (ABTS pH 5.0), 60°C
CATPO E484I variant [13] = biological target: T4, CATPO E484I variant; assay type: biochemical; details: for K m: pH 7.0 (ABTS pH 5.0), 60°C
CATPO T188A variant [14] = biological target: T8, CATPO T188A variant (Scytalidium thermophilum (Humicola insolens), UniProt M4GGR5, T207A); assay type: biochemical; details: for K m: pH 7.0 (ABTS pH 5.0), 60°C
CATPO T188A variant [15] = biological target: T8, CATPO T188A variant; experiment: biochemical
CATPO T188D variant [16] = biological target: T2, CATPO T188D variant; experiment: biochemical
[17] = substrate: Cc1ccc(O)c(O)c1; experiment: Spectrophotometric phenol oxidase assay without H2O2 at pH 7.0 and 60 °C, initial rates fitted to the Michaelis-Menten equation.; assay type: biochemical
Method: (§1) All inhibition assays were performed in triplicate.

[18] = substrate: Oc1ccc(O)cc1; experiment: as above; assay type: biochemical
Method: as §1

[19] = substrate: CC(C)(C)c1ccc(O)c(O)c1; experiment: as above; assay type: biochemical
Method: as §1

[20] = substrate: CCn1c(=NN=c2sc3cc(S(=O)(=O)O)ccc3n2CC)sc2cc(S(=O)(=O)O)ccc21; experiment: purified protein, by the assay type; details: 60.0 °C
[21] = substrate: Oc1ccccc1O; experiment: Phenol oxidase activity (H2O2-independent) measured spectrophotometrically by product formation at pH 7.0, 60 C, Michaelis-Menten fit.; assay type: biochemical
Method: as §1

[22] = substrate: Oc1ccccc1O; experiment: Spectrophotometric catechol oxidation assay at 420 nm, pH 7.0 and 60 °C; values not normalized to heme content.; assay type: biochemical
Method: as §1
Tabl e S1 Comparison of gate residues at the entrance of the main channel among large subunit […]
PDB ID e Organism Gate residues
Tabl e S2 K i neti c const ant s
**Catalase activity **Phenol oxidase activity
*KM-app kcat kcat/*KM-app KM kcat kcat/KM
(mM) (s-1) (s-1 M-1) (mM) (s-1) (s-1 M-1) Rz Heme
RZ = A407/A280. T he values were normalized to heme content in each CAT PO variant. T he values in parentheses are for unnor malized val ues a nd shaded in gre y for ease of vie wi ng. *KM-app is the H2O2 concentratio n at Vmax/2 […]
Michaelis–Menten kinetics (Switala & Loewen, 2002).
**One unit of catalase is defined as the amo unt that catalyses the degradation o f 1 µmol H2O2 in 1 min. One unit of phenol oxidase corresponds to the enzyme catalysing the formation of 1 nmol of product per minute.

T8 sequence (M4GGR5 entry or part of it T207A): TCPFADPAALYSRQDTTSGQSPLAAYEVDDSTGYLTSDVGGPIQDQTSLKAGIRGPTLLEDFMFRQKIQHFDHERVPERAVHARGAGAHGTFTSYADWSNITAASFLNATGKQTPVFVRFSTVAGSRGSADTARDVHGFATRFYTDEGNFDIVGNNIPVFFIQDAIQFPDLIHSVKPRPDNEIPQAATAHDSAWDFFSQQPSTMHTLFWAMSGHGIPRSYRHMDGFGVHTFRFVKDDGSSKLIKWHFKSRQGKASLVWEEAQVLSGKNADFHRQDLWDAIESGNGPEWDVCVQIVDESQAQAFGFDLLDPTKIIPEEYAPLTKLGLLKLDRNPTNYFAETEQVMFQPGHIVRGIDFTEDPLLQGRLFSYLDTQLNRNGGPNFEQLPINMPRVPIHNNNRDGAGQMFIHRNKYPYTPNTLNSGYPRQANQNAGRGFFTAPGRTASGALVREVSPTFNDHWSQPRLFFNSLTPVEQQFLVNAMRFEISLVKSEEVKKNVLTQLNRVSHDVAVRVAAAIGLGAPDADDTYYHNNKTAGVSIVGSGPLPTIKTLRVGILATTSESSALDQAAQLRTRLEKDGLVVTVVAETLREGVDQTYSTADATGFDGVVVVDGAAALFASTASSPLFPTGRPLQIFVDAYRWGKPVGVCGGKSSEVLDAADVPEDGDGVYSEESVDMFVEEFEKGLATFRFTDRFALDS
T1 sequence (M4GGR5 entry or part of it E503D): as the sequence (M4GGR5 entry or part of it T207A) above
T2 sequence (M4GGR5 entry or part of it T207D): as the sequence (M4GGR5 entry or part of it T207A) above
T6 sequence (M4GGR5 entry or part of it E503A): as the sequence (M4GGR5 entry or part of it T207A) above
T3 sequence (M4GGR5 entry or part of it): as the sequence (M4GGR5 entry or part of it T207A) above
T5 sequence (M4GGR5 entry or part of it T207I): as the sequence (M4GGR5 entry or part of it T207A) above
T7 sequence (M4GGR5 entry or part of it T207F): as the sequence (M4GGR5 entry or part of it T207A) above
T4 sequence (M4GGR5 entry or part of it E503I): as the sequence (M4GGR5 entry or part of it T207A) above

| Molecule | Ki (CATPO E484D variant [1]) [mM] | V max (CATPO T188D variant [2]) [mM/min] | k cat/K m (CATPO T188D variant [2]) | K m (CATPO T188D variant [2]) [mM] | V max (CATPO [3]) [mM/min] | k cat/K m (CATPO [3]) | Ki (CATPO E484I variant [5]) [mM] | Ki (CATPO T188I variant [6]) [mM] | Ki (CATPO E484A variant [7]) [mM] | V max (CATPO T188I variant [8]) [mM/min] | k cat/K m (CATPO T188I variant [8]) | K m (CATPO T188I variant [8]) [mM] | V max (CATPO E484A variant [9]) [mM/min] | k cat/K m (CATPO E484A variant [9]) | K m (CATPO E484A variant [9]) [mM] | V max (CATPO T188F variant [10]) [mM/min] | k cat/K m (CATPO T188F variant [10]) | K m (CATPO T188F variant [10]) [mM] | Ki (CATPO T188F variant [11]) [mM] | V max (CATPO E484D variant [12]) [mM/min] | further results |
| --- | --- | --- | --- | --- | --- | --- | --- | --- | --- | --- | --- | --- | --- | --- | --- | --- | --- | --- | --- | --- | --- |
| Cc1ccc(O)c(O)c1 [4-Methylcatechol, 4-methylcatechol] | 1.5 ± 0.1 | 28000 ± 970 | 7620 ± 100 s^−1 M^−1 (×10^2) | 30 ± 0.1 | 21320 ± 845 | 1580 ± 110 s^−1 M^−1 (×10^2) | 46 ± 2 | 40 ± 2.4 | 55 ± 5 | 43000 ± 900 | 6600 ± 600 s^−1 M^−1 (×10^2) | 34 ± 1.2 | 75500 ± 550 | 10100 ± 90 s^−1 M^−1 (×10^2) | 33 ± 1.0 | 54150 ± 800 | 6570 ± 560 s^−1 M^−1 (×10^2) | 32 ± 1.0 | 45 ± 4.8 | 20600 ± 712 | Ki (CATPO [4]; catechol oxidation by CATPO, catechol 1 to 100 mM, read-out: K i): 1.5 ± 0.4 mM; k cat/K m (CATPO E484D variant [12]): 1500 ± 88 s^−1 M^−1 (×10^2); K m (CATPO E484D variant [12]): 36 ± 0.1 mM; V max (CATPO E484I variant [13]): 41500 ± 840 mM/min; k cat/K m (CATPO E484I variant [13]): 5480 ± 80 s^−1 M^−1 (×10^2); K m (CATPO E484I variant [13]): 35 ± 0.7 mM; V max (CATPO T188A variant [14]): 21000 ± 880 mM/min; k cat/K m (CATPO T188A variant [14]): 1640 ± 210 s^−1 M^−1 (×10^2); K m (CATPO T188A variant [14]): 35 ± 1.0 mM; Ki (CATPO T188A variant [15]): 1.5 ± 0.4 mM; Ki (CATPO T188D variant [16]): 50 ± 2.5 mM |
| Oc1ccc(O)cc1 [Hydroquinone, p-hydroquinone] | 8.5 ± 1.4 | 9600 ± 65 | 480 ± 64 s^−1 M^−1 (×10^2) | 46 ± 1.0 | 10000 ± 300 | 750 ± 50 s^−1 M^−1 (×10^2) | 70 ± 3.5 | 70 ± 4 | 81 ± 4.7 | 11000 ± 110 | 490 ± 78 s^−1 M^−1 (×10^2) | 44 ± 0.4 | 17800 ± 100 | 600 ± 40 s^−1 M^−1 (×10^2) | 43 ± 1.2 | 13000 ± 140 | 530 ± 65 s^−1 M^−1 (×10^2) | 42 ± 1.0 | 76 ± 5.1 | 9900 ± 125 | K m (CATPO [3]; pH 7.0 (ABTS pH 5.0), 60°C): 45 ± 1.5 mM; Ki (CATPO [4]): 8.5 ± 0.5 mM; k cat/K m (CATPO E484D variant [12]): 300 ± 50 s^−1 M^−1 (×10^2); K m (CATPO E484D variant [12]): 46 ± 0.8 mM; V max (CATPO E484I variant [13]): 10000 ± 100 mM/min; k cat/K m (CATPO E484I variant [13]): 460 ± 20 s^−1 M^−1 (×10^2); K m (CATPO E484I variant [13]): 45 ± 1.3 mM; V max (CATPO T188A variant [14]): 9850 ± 85 mM/min; k cat/K m (CATPO T188A variant [14]): 300 ± 30 s^−1 M^−1 (×10^2); K m (CATPO T188A variant [14]): 46 ± 0.4 mM; Ki (CATPO T188A variant [15]): 8.6 ± 0.6 mM; Ki (CATPO T188D variant [16]): 66 ± 5.5 mM |
| E484I (Mycothermus thermophilus; E503I) (protein, recombinant, pET-28-TEV-CATPO; contains heme b; Rz 0.5) TCPFADPAALYSRQDTTSGQSPLAAYEVDDSTGYLTSDVGGPIQDQTSLKAGIRGPTLLEDFMFRQKIQHFDHERVPERAVHARGAGAHGTFTSYADWSNITAASFLNATGKQTPVFVRFSTVAGSRGSADTARDVHGFATRFYTDEGNFDIVGNNIPVFFIQDAIQFPDLIHSVKPRPDNEIPQAATAHDSAWDFFSQQPSTMHTLFWAMSGHGIPRSYRHMDGFGVHTFRFVKDDGSSKLIKWHFKSRQGKASLVWEEAQVLSGKNADFHRQDLWDAIESGNGPEWDVCVQIVDESQAQAFGFDLLDPTKIIPEEYAPLTKLGLLKLDRNPTNYFAETEQVMFQPGHIVRGIDFTEDPLLQGRLFSYLDTQLNRNGGPNFEQLPINMPRVPIHNNNRDGAGQMFIHRNKYPYTPNTLNSGYPRQANQNAGRGFFTAPGRTASGALVREVSPTFNDHWSQPRLFFNSLTPVEQQFLVNAMRFIISLVKSEEVKKNVLTQLNRVSHDVAVRVAAAIGLGAPDADDTYYHNNKTAGVSIVGSGPLPTIKTLRVGILATTSESSALDQAAQLRTRLEKDGLVVTVVAETLREGVDQTYSTADATGFDGVVVVDGAAALFASTASSPLFPTGRPLQIFVDAYRWGKPVGVCGGKSSEVLDAADVPEDGDGVYSEESVDMFVEEFEKGLATFRFTDRFALDS |  |  |  |  |  |  |  |  |  |  |  |  |  |  |  |  |  |  |  |  | Km [17]: 35 ± 0.7 mM; Km [18]: 45 ± 1.3 mM; Km [19]: 37 ± 0.4 mM; Km [20]: 50 ± 0.5 mM; Km [21]: 30 ± 1.0 mM; kcat [21]: 26500 ± 1320 s⁻¹; kcat/Km [21]: 880000 ± 7200 M⁻¹ s⁻¹; Km [22]: 40 mM |
| T188A (Mycothermus thermophilus; T207A) (protein, recombinant, pET-28-TEV-CATPO; contains heme d; Rz 0.7) TCPFADPAALYSRQDTTSGQSPLAAYEVDDSTGYLTSDVGGPIQDQTSLKAGIRGPTLLEDFMFRQKIQHFDHERVPERAVHARGAGAHGTFTSYADWSNITAASFLNATGKQTPVFVRFSTVAGSRGSADTARDVHGFATRFYTDEGNFDIVGNNIPVFFIQDAIQFPDLIHSVKPRPDNEIPQAAAAHDSAWDFFSQQPSTMHTLFWAMSGHGIPRSYRHMDGFGVHTFRFVKDDGSSKLIKWHFKSRQGKASLVWEEAQVLSGKNADFHRQDLWDAIESGNGPEWDVCVQIVDESQAQAFGFDLLDPTKIIPEEYAPLTKLGLLKLDRNPTNYFAETEQVMFQPGHIVRGIDFTEDPLLQGRLFSYLDTQLNRNGGPNFEQLPINMPRVPIHNNNRDGAGQMFIHRNKYPYTPNTLNSGYPRQANQNAGRGFFTAPGRTASGALVREVSPTFNDHWSQPRLFFNSLTPVEQQFLVNAMRFEISLVKSEEVKKNVLTQLNRVSHDVAVRVAAAIGLGAPDADDTYYHNNKTAGVSIVGSGPLPTIKTLRVGILATTSESSALDQAAQLRTRLEKDGLVVTVVAETLREGVDQTYSTADATGFDGVVVVDGAAALFASTASSPLFPTGRPLQIFVDAYRWGKPVGVCGGKSSEVLDAADVPEDGDGVYSEESVDMFVEEFEKGLATFRFTDRFALDS |  |  |  |  |  |  |  |  |  |  |  |  |  |  |  |  |  |  |  |  | Km [17]: 35 ± 1.0 mM; Km [18]: 46 ± 0.4 mM; Km [19]: 37 ± 1.0 mM; Km [20]: 52 ± 0.8 mM; Km [22]: 33 ± 0.5 mM; kcat [22]: 6700 ± 335 s⁻¹; kcat/Km [22]: 200000 ± 12000 M⁻¹ s⁻¹ |
